According to patent US9187477B2, “Azabenzimidazole derivatives” (Boehringer Ingelheim International GmbH, priority 2013, dated 2015):

Legend:
[1] = biological target: AMPK complex 1 (containing alpha1beta1gamma1) (Homo sapiens (Human), UniProt Q13131+Q9Y478); assay: in vitro AMPK activation assay (ADP-Glo Kinase Assay); assay type: biochemical; settings: AMPK alpha1beta1gamma1, ATP 30 μM, peptide 1 μM, 60 min, room temperature
Text: Activated AMPK complex 1 (containing alpha1beta1gamma1) was obtained from baculovirus expression system. The gene encoding AMPK alpha1 was cloned into the pACG2T vector (BD Biosciences) to obtain a N-terminal Glutathion S transferase (GST)-fusion protein. The genes encoding AMPK beta1 and gamma1 were cloned into the p2Bac dual multiple cloning site vector (Invitrogen) with beta1 under the control of the p10 promoter and gamma1 under the control of the PH promoter. The transfer vectors containing AMPK were co-transfected individually with AcPNV BacMagic-3 DNA (EMD Millipore) in Sf9 cells and the recombinant baculoviruses were harvested after 5 days, followed by 3 rounds of amplification of the virus stock in Sf9 cells. AMPK (alpha1beta1gamma1) was expressed in High Five 5 cells by co-infection of recombinant alpha1 virus and recombinant beta1/gamma1 virus for 72 h at 27° C. Cells were harvested by centrifugation and lysed by 3 freeze/thaw cycles in PBS with 10% glycerol and protease inhibitor cocktail (Roche). After centrifugation AMPK a1b1g1 in the supernatant was captured by immobilized glutathione (GE Healthcare), impurities were washed away with PBS and AMPK alpha1beta1gamma1 was eluted with PBS containing 20 mM reduced gluthathione. The protein buffer was then exchanged to PBS with 10% glycerol and protein concentration was determined by UV absorbance.
The white 384-well Optiplates (cat. no. 6007299) were purchased from PerkinElmer. The V9101 ADP-Glo Kinase Assay and ultra pure ATP (V915A) was purchased from Promega. The substrate for AMPK (NH2-HMRSAMSGLHLVKRR_CONH2) was purchased from Upstate (12-355).
Compounds were tested in either serial dilutions or single dose concentrations. The serial compound dilutions were prepared in 100% DMSO automatically. The final DMSO concentration in the assay was 0.1%.
The Compound Stock Solutions were 10 mM in 100% DMSO. The compounds were solubilised at room temperature.
In the 384-well plates 1.25 ul of test compound in assay buffer was mixed with 1.25 ul of AMPK and 1.25 μl of the peptide (final concentration of 1 μM) and 1.25 μl of ATP (final concentration of 30 μM), both dissolved in assay buffer. This step was followed by an incubation time of 60 min. Then 5 μl of ADP Glo Reagent was added. This was followed by 40 min of incubation. Then 10 μl of Kinase Detection Reagent was admixed. The plates were sealed and after an incubation period of 30 min, the luminescence signal was measured in an Envision reader. All incubation steps were accomplished at room temperature.
Each assay microtiter plate contained wells with vehicle controls instead of compound (0.1% DMSO in water) as reference for the low signal (100% CTL, low signal), and wells with serial dilutions of AMP (final 30 μM) as reference for high signals.
The luminescence signal generated was proportional to the ADP concentration produced and was correlated with AMPK activity. The analysis of the data was performed by the calculation of the percentage of ATP consumption of AMPK in the presence of the test compound compared to the consumption of ATP in the presence of AMPK without compound. (RLU(sample)/RLU(low control))*100[RLU=relative luminescence units]
An activator of the AMPK enzyme gave values above 100% CTL.
EC50 values based on dose response curves are calculated with the XIFIT software using the 4 Parameter Logistic Model or Sigmoidal Dose-Response Model.

[2] = Metabolic stability: metabolic degradation with pooled human liver microsomes; assay type: in vitro ADME; settings: for c (control) (metabolic stability), remaining test compound after NADPH independent incubation: incubation without NADPH, after 2 hours, human liver microsomes; for t1/2 INVITRO: pooled human liver microsomes 1 mg/ml, 37° C., test compound 1 μM, NADPH 1 mM
Protocol: The metabolic degradation of the test compound is assayed at 37° C. with pooled human liver microsomes. The final incubation volume of 100 μl per time point contains TRIS buffer pH 7.6 at room temperature (0.1 M), magnesium chloride (5 mM), microsomal protein (1 mg/ml) and the test compound at a final concentration of 1 μM.
Following a short preincubation period at 37° C., the reactions were initiated by addition of beta-nicotinamide adenine dinucleotide phosphate, reduced form (NADPH, 1 mM) and terminated by transferring an aliquot into solvent after different time points.
Additionally, the NADPH-independent degradation was monitored in incubations without NADPH, terminated at 2 hour time point. The [%] remaining test compound after NADPH independent incubation is reflected by the parameter c (control) (metabolic stability). A c (control) (metabolic stability) value around 100% excludes cofactor independent activities (e.g. from esterases).
The quenched incubations are pelleted by centrifugation (10000 g, 5 min).
An aliquot of the supernatant is assayed by LC-MS/MS for the amount of parent compound. The half-life (t1/2 INVITRO) is determined by the slope of the semilogarithmic plot of the concentration-time profile.

Chain of AMPK complex 1 (containing alpha1beta1gamma1) (Q13131 whole entry, the tested form may be a part): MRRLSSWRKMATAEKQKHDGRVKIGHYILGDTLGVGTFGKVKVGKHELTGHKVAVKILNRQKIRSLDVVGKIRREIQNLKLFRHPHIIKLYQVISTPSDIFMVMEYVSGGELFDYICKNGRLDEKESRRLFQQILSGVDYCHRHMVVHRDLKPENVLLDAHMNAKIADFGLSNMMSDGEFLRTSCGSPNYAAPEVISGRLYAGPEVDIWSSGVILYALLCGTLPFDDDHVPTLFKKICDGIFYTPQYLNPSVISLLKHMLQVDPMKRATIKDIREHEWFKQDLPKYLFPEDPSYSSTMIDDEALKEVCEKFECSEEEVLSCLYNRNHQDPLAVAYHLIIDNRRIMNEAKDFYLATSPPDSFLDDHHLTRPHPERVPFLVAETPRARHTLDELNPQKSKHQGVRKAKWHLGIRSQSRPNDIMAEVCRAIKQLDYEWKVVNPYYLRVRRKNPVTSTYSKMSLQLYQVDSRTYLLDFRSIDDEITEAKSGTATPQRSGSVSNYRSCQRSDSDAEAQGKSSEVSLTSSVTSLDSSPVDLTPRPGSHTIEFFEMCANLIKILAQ
Chain of AMPK complex 1 (containing alpha1beta1gamma1) (Q9Y478 whole entry, the tested form may be a part): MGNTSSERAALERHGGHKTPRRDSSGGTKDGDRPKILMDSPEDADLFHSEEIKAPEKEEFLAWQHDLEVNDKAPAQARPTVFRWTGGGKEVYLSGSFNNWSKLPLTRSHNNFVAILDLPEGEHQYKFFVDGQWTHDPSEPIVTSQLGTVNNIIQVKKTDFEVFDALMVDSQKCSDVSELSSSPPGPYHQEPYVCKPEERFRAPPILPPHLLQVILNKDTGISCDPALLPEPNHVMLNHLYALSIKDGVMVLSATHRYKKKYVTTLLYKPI
Chain of AMPK complex 1 (containing alpha1beta1gamma1) (P54619 whole entry partner, the tested form may be a part): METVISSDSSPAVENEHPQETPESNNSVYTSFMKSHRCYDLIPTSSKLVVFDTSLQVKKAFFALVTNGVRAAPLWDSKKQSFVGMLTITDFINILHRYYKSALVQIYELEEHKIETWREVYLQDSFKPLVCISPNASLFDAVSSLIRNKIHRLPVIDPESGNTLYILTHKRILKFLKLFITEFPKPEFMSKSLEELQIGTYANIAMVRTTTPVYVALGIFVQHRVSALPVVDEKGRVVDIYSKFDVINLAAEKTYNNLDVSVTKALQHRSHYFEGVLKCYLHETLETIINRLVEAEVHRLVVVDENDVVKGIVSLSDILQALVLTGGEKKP

SMILES | EC50 [1] | c (control) (metabolic stability), remaining test compound after NADPH independent incubation [2] | t1/2 INVITRO [2]
O=C(N[C@H]1CC[C@@H](c2ccc(-c3nc4[nH]c(O[C@@H]5CO[C@H]6[C@@H]5OC[C@H]6O)nc4cc3Cl)cc2)CC1)OC1CCCC1 [Example 3, Cyclopentyl (cis)-4-(4-(6-chloro-2-((3R,3aR,6R,6aR)-6-hydroxyhexahydrofuro[3,2-b]furan-3-yloxy)-3H-imidazo[4,5-b]pyridin-5-yl)phenyl)cyclohexylcarbamate] | 108 nM | 117% | 0.317 h
O=C(N[C@H]1CC[C@@H](c2ccc(-c3nc4[nH]c(O[C@@H]5CO[C@H]6[C@@H]5OC[C@H]6O)nc4cc3Cl)cc2)CC1)OC1CCOCC1 [Example 5, Tetrahydro-2H-pyran-4-yl (cis)-4-(4-(6-chloro-2-((3R,3aR,6R,6aR)-6-hydroxyhexahydrofuro[3,2-b]furan-3-yloxy)-3H-imidazo[4,5-b]pyridin-5-yl)phenyl)cyclohexylcarbamate] | 119 nM | 106% | 1.13 h
O=C(O[C@H]1CC[C@H](c2ccc(-c3nc4[nH]c(O[C@@H]5CO[C@H]6[C@@H]5OC[C@H]6O)nc4cc3Cl)cc2)CC1)N1CCCC1 [Example 9, (trans)-4-(4-(6-Chloro-2-((3R,3aR,6R,6aR)-6-hydroxyhexahydrofuro[3,2-b]furan-3-yloxy)-3H-imidazo[4,5-b]pyridin-5-yl)phenyl)cyclohexyl pyrrolidine-1-carboxylate] | 17 nM | 100% | >2.17 h
